Experimental findings from ChEMBL document CHEMBL3259571, “Diacylglycerol lactones targeting the structural features that distinguish the atypical C1 domains of protein kinase C ζ and ι from typical C1 domains” (J Med Chem, 2014) are described below.

In assay [1] the target is Protein kinase C delta type (Mus musculus, UniProt P28867). Description: Displacement of [20-3H]PDBu from GST-tagged full-length mouse PKC-delta C1B domain expressed in Escherichia coli after 2 to 30 mins by polyethylene glycol precipitation assay in presence of phosphatidylserine.
Assay [2] can be described thus: Displacement of [20-3H]PDBu from GST-tagged mouse PKC-delta C1B domain N7R mutant expressed in Escherichia coli after 2 to 30 mins by polyethylene glycol precipitation assay in presence of phosphatidylserine.
The nature of assay [3]: Displacement of [20-3H]PDBu from GST-tagged mouse PKC-delta C1B domain S10R mutant expressed in Escherichia coli after 2 to 30 mins by polyethylene glycol precipitation assay in presence of phosphatidylserine.
The nature of assay [4]: Displacement of [20-3H]PDBu from GST-tagged mouse PKC-delta C1B domain P11R mutant expressed in Escherichia coli after 2 to 30 mins by polyethylene glycol precipitation assay in presence of phosphatidylserine.
Assay [5] is described as follows: Displacement of [20-3H]PDBu from GST-tagged mouse PKC-delta C1B domain L20R mutant expressed in Escherichia coli after 2 to 30 mins by polyethylene glycol precipitation assay in presence of phosphatidylserine.
The species named for assay [6] is Mus musculus. The assay is described as follows: Selectivity ratio of Ki for GST-tagged mouse PKC-delta C1B domain N7R mutant to Kd for GST-tagged full-length mouse PKC-delta C1B domain.
The species named for assay [7] is Mus musculus. The assay is described as follows: Selectivity ratio of Ki for GST-tagged mouse PKC-delta C1B domain S10R mutant to Kd for GST-tagged full-length mouse PKC-delta C1B domain.
The species named for assay [8] is Mus musculus. Description: Selectivity ratio of Ki for GST-tagged mouse PKC-delta C1B domain P11R mutant to Kd for GST-tagged full-length mouse PKC-delta C1B domain.
Assay [9] is filed under the species Mus musculus. Description: Selectivity ratio of Ki for GST-tagged mouse PKC-delta C1B domain L20R mutant to Kd for GST-tagged full-length mouse PKC-delta C1B domain.
Assay [10] is described as follows: Displacement of [20-3H]PDBu from GST-tagged mouse PKC-delta C1B domain N7R/P11R mutant expressed in Escherichia coli after 2 to 30 mins by polyethylene glycol precipitation assay in presence of phosphatidylserine.
Assay [11] can be described thus: Displacement of [20-3H]PDBu from GST-tagged mouse PKC-delta C1B domain N7R/L20R mutant expressed in Escherichia coli after 2 to 30 mins by polyethylene glycol precipitation assay in presence of phosphatidylserine.
For assay [12], the species on record is Mus musculus. Description: Selectivity ratio of Ki for GST-tagged mouse PKC-delta C1B domain N7R/P11R mutant to Kd for GST-tagged full-length mouse PKC-delta C1B domain.
For assay [13], the species on record is Mus musculus. Description: Selectivity ratio of Ki for GST-tagged mouse PKC-delta C1B domain N7R/L20R mutant to Kd for GST-tagged full-length mouse PKC-delta C1B domain.
Assay [14] in a line: Displacement of [20-3H]PDBu from GST-tagged mouse PKC-delta C1B domain N7R/S10R/P11R mutant expressed in Escherichia coli after 2 to 30 mins by polyethylene glycol precipitation assay in presence of phosphatidylserine.
A short description of assay [15]: Displacement of [20-3H]PDBu from GST-tagged mouse PKC-delta C1B domain N7R/S10R/L20R mutant expressed in Escherichia coli after 2 to 30 mins by polyethylene glycol precipitation assay in presence of phosphatidylserine.
The species entered for assay [16] is Mus musculus. Description: Selectivity ratio of Ki for GST-tagged mouse PKC-delta C1B domain N7R/S10R/P11R mutant to Kd for GST-tagged full-length mouse PKC-delta C1B domain.
For assay [17], the species on record is Mus musculus. Description: Selectivity ratio of Ki for GST-tagged mouse PKC-delta C1B domain N7R/S10R/L20R mutant to Kd for GST-tagged full-length mouse PKC-delta C1B domain.

Protein kinase C delta type, sequence (P28867 whole entry, the tested form may be a part): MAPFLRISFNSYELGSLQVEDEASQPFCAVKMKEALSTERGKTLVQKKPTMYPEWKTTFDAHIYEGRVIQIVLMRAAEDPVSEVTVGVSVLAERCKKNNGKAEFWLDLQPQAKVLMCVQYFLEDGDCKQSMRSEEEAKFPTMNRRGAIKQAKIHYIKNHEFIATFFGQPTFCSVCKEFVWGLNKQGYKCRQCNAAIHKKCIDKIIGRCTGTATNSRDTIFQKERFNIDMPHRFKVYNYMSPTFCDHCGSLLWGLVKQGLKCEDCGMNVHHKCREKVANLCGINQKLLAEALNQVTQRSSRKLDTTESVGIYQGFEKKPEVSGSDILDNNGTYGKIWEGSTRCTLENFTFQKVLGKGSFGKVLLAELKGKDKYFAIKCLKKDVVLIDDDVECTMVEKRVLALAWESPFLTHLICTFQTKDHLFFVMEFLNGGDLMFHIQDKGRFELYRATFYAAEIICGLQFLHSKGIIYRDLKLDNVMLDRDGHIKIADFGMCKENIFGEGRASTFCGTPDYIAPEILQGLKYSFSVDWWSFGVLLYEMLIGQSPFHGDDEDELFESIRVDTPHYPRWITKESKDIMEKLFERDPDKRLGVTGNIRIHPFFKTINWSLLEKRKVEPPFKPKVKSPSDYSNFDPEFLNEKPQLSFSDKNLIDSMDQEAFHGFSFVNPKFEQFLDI

As a reminder, the Kd is the constant that tells how readily two partners part at equilibrium. As usually defined, the Ki is the equilibrium dissociation constant of an inhibitor or competing ligand from its target. `CC(C)CC(CC(=O)OCC1(CO)C/C(=C\c2ccc(C(C(=O)OC(C)(C)C)C(=O)OC(C)(C)C)cc2)C(=O)O1)CC(C)C` (stereo not drawn): the Kd in assay [1] was 0.0006 µM. Besides, the Ki in assay [2] worked out at 0.0007 µM; in [3] it was 0.0006 µM; in [4] it was 0.0012 µM; in [5], 0.0105 µM. Besides, the Selectivity ratio in the assay listed under Mus musculus [6] stood at 1.17; in the assay listed under Mus musculus [7], 1; in the assay filed under Mus musculus [8], 2; in the assay filed under Mus musculus [9], 17.5.

Regarding `CC(C)CC(CC(=O)OCC1(CO)C/C(=C\c2cccc(C(C(=O)OC(C)(C)C)C(=O)OC(C)(C)C)c2)C(=O)O1)CC(C)C` (stereo not drawn), the Kd in assay [1] worked out at 0.0005 µM. Also, the inhibition constant (Ki) was determined as 0.0006 µM in [2], 0.0006 µM in assay [3], 0.001 µM in assay [4] and 0.0088 µM in [5]. The Selectivity ratio in the assay listed under Mus musculus [6] is 1.2; in the assay filed under Mus musculus [7] it was 1.2; in the assay listed under Mus musculus [8] it was 2; in the assay filed under Mus musculus [9], 17.6.

Consider `CC(C)C(CC(=O)OCC1(CO)C/C(=C/c2ccc(C(=O)O)cc2)C(=O)O1)C(C)C` (stereo not drawn), for which the Kd in [1] stood at 0.865 µM. Also, the inhibition constant (Ki) in [2] amounted to 0.473 µM; in [3] it was 0.496 µM; in assay [4], 0.94 µM; in assay [5], 2.81 µM; in assay [10], 2.81 µM; in [11], 51.9 µM. Further, the Selectivity ratio was 0.55 in the assay listed under Mus musculus [6]; 0.57 in the assay listed under Mus musculus [7]; 1.09 in the assay filed under Mus musculus [8]; 3.25 in the assay filed under Mus musculus [9]; 3.25 in the assay listed under Mus musculus [12]; 60 in the assay listed under Mus musculus [13].

As to `CC(C)C(CC(=O)OCC1(CO)C/C(=C\c2ccccc2O)C(=O)O1)C(C)C` (stereo not drawn), the Kd in assay [1] came out at 0.00295 µM. Moreover, the Ki was 0.00329 µM in assay [2]; 0.00233 µM in assay [3]; 0.0104 µM in assay [4]; 0.014 µM in assay [5]; 0.037 µM in [10]; 0.239 µM in assay [11]. Further, the Ki in [14] came to 0.063 µM; in assay [15] it was 0.661 µM. Besides, the Selectivity ratio in the assay listed under Mus musculus [6] came to 1.12; in the assay listed under Mus musculus [7], 0.79; in the assay filed under Mus musculus [8] it was 3.53; in the assay filed under Mus musculus [9] it was 4.75; in the assay filed under Mus musculus [12], 12.5; in the assay filed under Mus musculus [13], 81. Moreover, the Selectivity ratio is 21.3 in the assay filed under Mus musculus [16] and 224 in the assay listed under Mus musculus [17].

Consider `CC(C)C(CC(=O)OCC1(CO)C/C(=C\c2ccc(C(=O)O)cc2)C(=O)O1)C(C)C` (stereo not drawn), for which the dissociation constant Kd in assay [1] worked out at 0.56 µM. Besides, the Ki in assay [2] was 0.787 µM; in [3] it was 0.813 µM; in assay [4], 0.71 µM; in assay [5], 6.9 µM; in assay [10], 3.8 µM; in assay [11], 117 µM. Moreover, the Selectivity ratio was 1.41 in the assay filed under Mus musculus [6]; 1.45 in the assay listed under Mus musculus [7]; 1.27 in the assay listed under Mus musculus [8]; 12.4 in the assay listed under Mus musculus [9]; 6.79 in the assay listed under Mus musculus [12]; 209 in the assay filed under Mus musculus [13].

For the molecule `CC(C)CC(CC(=O)OCC1(CO)C/C(=C\c2ccccc2C(C(=O)OC(C)(C)C)C(=O)OC(C)(C)C)C(=O)O1)CC(C)C` (stereo not drawn), in assay [1], the Kd amounted to 0.001 µM. The Ki in [2] came out at 0.0009 µM; in [3] it was 0.0015 µM; in [4], 0.0017 µM; in [5], 0.0173 µM. Further, the Selectivity ratio stood at 0.9 in the assay listed under Mus musculus [6], 1.5 in the assay filed under Mus musculus [7], 1.7 in the assay listed under Mus musculus [8] and 17.3 in the assay listed under Mus musculus [9].

Consider `CC(C)CC(C/C=C1\CC(CO)(COC(=O)C(C)(CO)CO)OC1=O)CC(C)C` (stereo not drawn), for which the Kd in [1] turned out to be 0.777 µM. Moreover, the Ki in [2] is 0.806 µM; in assay [3], 1.12 µM; in assay [4] it was 2.03 µM; in assay [5], 0.81 µM; in assay [10] it was 23.8 µM; in [11], 7.64 µM. In addition, the inhibition constant (Ki) worked out at 47 µM in [14] and 7.83 µM in assay [15]. In addition, the Selectivity ratio in the assay filed under Mus musculus [6] came to 1.04; in the assay filed under Mus musculus [7], 1.44; in the assay listed under Mus musculus [8], 2.61; in the assay listed under Mus musculus [9], 1.04; in the assay listed under Mus musculus [12], 30.7; in the assay listed under Mus musculus [13], 9.83. Also, the Selectivity ratio in the assay filed under Mus musculus [16] stood at 60.5; in the assay listed under Mus musculus [17] it was 10.1.

In the case of `CC(C)CC(CC(=O)OCC1(CO)C/C(=C\c2ccc(C(=O)O)cc2)C(=O)O1)CC(C)C` (stereo not drawn), the Kd in assay [1] is 0.096 µM. In addition, the Ki in assay [2] is 0.12 µM; in assay [3], 0.094 µM; in assay [4], 0.12 µM; in assay [5], 0.739 µM. In addition, the Selectivity ratio in the assay filed under Mus musculus [6] came out at 1.25; in the assay listed under Mus musculus [7], 0.98; in the assay filed under Mus musculus [8] it was 1.25; in the assay listed under Mus musculus [9], 7.7.

As for `CC(C)(C)C(=O)OCC1(CO)C/C(=C\c2ccc(C(=O)O)cc2)C(=O)O1` (stereo not drawn), the Kd in [1] was determined as 1.07 µM. Also, the inhibition constant Ki in assay [2] came to 0.88 µM; in assay [3], 0.667 µM; in assay [4], 0.998 µM; in assay [5], 6.14 µM; in assay [10], 3.7 µM; in assay [11], 83.4 µM. Moreover, the Selectivity ratio in the assay listed under Mus musculus [6] is 0.82; in the assay filed under Mus musculus [7], 0.62; in the assay listed under Mus musculus [8] it was 0.93; in the assay filed under Mus musculus [9], 5.74; in the assay filed under Mus musculus [12], 3.49; in the assay filed under Mus musculus [13] it was 78.

Consider `CCCC(=O)O[C@@H]1[C@@H](C)[C@@]2(O)[C@@H](C=C(CO)C[C@]3(O)C(=O)C(C)=C[C@@H]23)[C@@H]2C(C)(C)[C@]12OC(=O)CCC`, for which, in assay [1], the equilibrium dissociation constant (Kd) turned out to be 0.00023 µM. Moreover, the inhibition constant Ki in assay [2] was determined as 0.00118 µM; in [3] it was 0.00032 µM; in assay [5], 0.008 µM; in assay [10], 0.0338 µM; in assay [11] it was 0.48 µM; in assay [14], 0.0196 µM. For the same molecule, in assay [15], the Ki came out at 1.36 µM.

For `CC(C)C(CC(=O)OCC1(CO)C/C(=C\c2cccc(O)c2)C(=O)O1)C(C)C` (stereo not drawn), the Kd in assay [1] came to 0.00246 µM. For the same molecule, the Ki in assay [2] was found to be 0.00248 µM; in [3], 0.00208 µM; in [4] it was 0.00232 µM; in [5], 0.0194 µM. The Selectivity ratio in the assay listed under Mus musculus [6] is 1.01; in the assay listed under Mus musculus [7] it was 0.85; in the assay filed under Mus musculus [8] it was 0.94; in the assay listed under Mus musculus [9], 7.87.

Take `CC(C)C(CC(=O)OCC1(CO)C/C(=C\c2ccc(O)cc2)C(=O)O1)C(C)C` (stereo not drawn): in [1], the Kd was 0.00295 µM. The inhibition constant Ki in assay [2] is 0.00199 µM; in assay [3], 0.00118 µM; in [4] it was 0.00148 µM; in assay [5], 0.0094 µM. For the same molecule, the Selectivity ratio in the assay listed under Mus musculus [6] is 0.67; in the assay filed under Mus musculus [7], 0.4; in the assay listed under Mus musculus [8] it was 0.5; in the assay listed under Mus musculus [9], 3.2.

With `CC(C)(C)C(=O)OCC1(CO)C/C(=C\c2cccc(C(=O)O)c2)C(=O)O1` (stereo not drawn), in assay [1], the Kd was found to be 1.21 µM. The inhibition constant (Ki) in assay [2] was 1.74 µM; in [3], 1.77 µM; in assay [4], 3.36 µM; in assay [5], 5.5 µM; in assay [10], 16 µM; in [11], 105 µM. Further, the Selectivity ratio in the assay listed under Mus musculus [6] turned out to be 1.44; in the assay filed under Mus musculus [7] it was 1.46; in the assay listed under Mus musculus [8], 2.79; in the assay listed under Mus musculus [9], 4.57; in the assay filed under Mus musculus [12], 13.2; in the assay listed under Mus musculus [13], 87.
